Test [1] deals with T1, human ENPP1 (Homo sapiens, UniProt P22413).
T1 construct: made in house
T1 sequence (P22413 1-925): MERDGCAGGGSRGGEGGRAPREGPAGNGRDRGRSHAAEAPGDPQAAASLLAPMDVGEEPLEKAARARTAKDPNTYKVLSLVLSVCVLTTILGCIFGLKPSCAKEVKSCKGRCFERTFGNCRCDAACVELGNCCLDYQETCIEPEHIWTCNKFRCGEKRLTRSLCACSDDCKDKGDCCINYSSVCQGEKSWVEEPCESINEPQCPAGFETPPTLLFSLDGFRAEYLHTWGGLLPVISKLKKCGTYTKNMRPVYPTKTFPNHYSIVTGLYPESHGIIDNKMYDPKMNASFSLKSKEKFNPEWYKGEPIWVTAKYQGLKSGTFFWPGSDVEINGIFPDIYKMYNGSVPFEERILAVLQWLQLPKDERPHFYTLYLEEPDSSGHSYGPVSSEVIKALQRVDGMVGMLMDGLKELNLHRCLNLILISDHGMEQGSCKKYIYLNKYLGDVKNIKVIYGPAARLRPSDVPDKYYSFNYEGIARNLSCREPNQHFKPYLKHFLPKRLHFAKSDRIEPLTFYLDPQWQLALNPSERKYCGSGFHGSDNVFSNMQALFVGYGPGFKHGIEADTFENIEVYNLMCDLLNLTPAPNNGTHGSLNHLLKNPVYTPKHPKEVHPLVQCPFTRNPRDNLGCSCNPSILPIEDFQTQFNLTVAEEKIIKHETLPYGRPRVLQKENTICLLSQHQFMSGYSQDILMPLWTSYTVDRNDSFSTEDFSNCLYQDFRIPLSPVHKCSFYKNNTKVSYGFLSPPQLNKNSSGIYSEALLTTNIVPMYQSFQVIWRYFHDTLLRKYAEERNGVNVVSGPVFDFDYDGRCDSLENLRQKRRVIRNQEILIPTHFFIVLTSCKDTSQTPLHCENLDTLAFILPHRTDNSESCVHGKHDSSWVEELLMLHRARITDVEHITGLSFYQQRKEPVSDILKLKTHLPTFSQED
The experiment in a line: ENPP1 assay with ATP substrate (Transcreener AMP2/GMP2 TR-FRET). It is filed as biochemical. The conditions noted are these: 1 hour at room temperature. The procedure, abridged:
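Reaction ran 1 h at room temperature in pH 7.5 Tris with MgCl2, TCEP, Tween 20 and 1% DMSO. ATP was added as a 300 nM stock and enzyme as an 8.5 μM stock. After EDTA stop, AMP was read by TR-FRET tracer displacement. Percent inhibition used enzyme/no-enzyme controls; IC50 was fitted with a variable slope.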
For orientation: Time-resolved FRET reads energy transfer from a long-lived donor to a nearby acceptor.

The target of test [2] is T2, ENPP3 (Homo sapiens, UniProt O14638).
T2 sequence (O14638 1-875): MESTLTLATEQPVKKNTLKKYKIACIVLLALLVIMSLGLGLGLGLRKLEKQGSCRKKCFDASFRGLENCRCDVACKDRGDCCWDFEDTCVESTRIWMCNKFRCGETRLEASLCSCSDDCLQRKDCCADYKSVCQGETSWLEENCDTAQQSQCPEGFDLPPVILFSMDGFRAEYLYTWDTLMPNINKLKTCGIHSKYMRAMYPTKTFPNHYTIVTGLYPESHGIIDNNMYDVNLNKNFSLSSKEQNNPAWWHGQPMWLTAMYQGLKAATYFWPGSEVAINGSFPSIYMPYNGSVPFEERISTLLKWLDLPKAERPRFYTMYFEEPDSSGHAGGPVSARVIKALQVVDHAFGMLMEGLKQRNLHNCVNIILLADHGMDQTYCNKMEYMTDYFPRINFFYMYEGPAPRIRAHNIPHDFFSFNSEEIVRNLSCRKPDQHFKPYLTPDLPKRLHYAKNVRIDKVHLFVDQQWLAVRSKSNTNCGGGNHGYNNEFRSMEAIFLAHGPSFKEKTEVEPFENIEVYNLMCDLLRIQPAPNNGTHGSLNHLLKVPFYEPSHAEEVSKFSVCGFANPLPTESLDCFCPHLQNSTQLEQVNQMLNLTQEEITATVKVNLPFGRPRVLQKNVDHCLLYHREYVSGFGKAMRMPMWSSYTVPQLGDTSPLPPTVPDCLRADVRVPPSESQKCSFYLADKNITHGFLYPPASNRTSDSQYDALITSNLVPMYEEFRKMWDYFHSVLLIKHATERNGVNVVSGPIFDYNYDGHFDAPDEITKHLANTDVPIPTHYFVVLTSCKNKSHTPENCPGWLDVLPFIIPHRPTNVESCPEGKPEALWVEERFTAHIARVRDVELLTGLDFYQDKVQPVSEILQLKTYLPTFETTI
The experiment in a line: ENPP3 Km ATP assay. It is filed as biochemical. The conditions noted are these: ATP at Km.

Where only a bound is given, the exact number is not on record here.

This note sets out measurements from US12643910B2, “Substituted pyrazolo[3,4-b]pyridines as ectonucleotide pyrophosphatase/phosphodiesterase 1 (ENPP1) modulators” (SANFORD BURNHAM PREBYS MEDICAL DISCOVERY INSTITUTE, priority 2019, dated 2026).

By IC50 is commonly meant the midpoint of a concentration-inhibition curve.

As to `NS(=O)(=O)c1ccc(CNc2ncnc3scc(C4=CCCCC4)c23)cc1` [Example 1.69, 4-((5-(1-Cyclohexenyl)thieno[2,3-d]pyrimidin-4-yl)aminomethyl)benzenesulfonamide], the IC50 is over 20 µM in test [1] and 0.1 to 1 µM in test [2].

Take `NS(=O)(=O)c1ccc(COc2ncnc3scc(-c4ccccc4)c23)cc1` [Example 1.70, 4-((5-Phenylthieno[2,3-d]pyrimidin-4-yl)oxymethyl)benzenesulfonamide]: the figures for the IC50 in test [1] and in test [2] were 0.1 to 1 µM and 1 to 20 µM, respectively.

As for `Cn1ncc2c(NCc3ccc(S(N)(=O)=O)c(F)c3)ncnc21` [Example 2.1, 2-Fluoro-4-(((1-methyl-1H-pyrazolo[3,4-d]pyrimidin-4-yl)amino)methyl)-benzenesulfonamide], the IC50 in test [1] is under 0.1 µM; in test [2], 1 to 20 µM.

With `Cc1cc(S(N)(=O)=O)ccc1CNc1ncnc2c1cnn2C` [Example 2.2, 3-Methyl-4-(((1-methyl-1H-pyrazolo[3,4-d]pyrimidin-4-yl)amino)methyl)-benzenesulfonamide], the IC50 lay within 0.1 to 1 µM in test [1] and 1 to 20 µM in test [2].

For `COc1cc(S(N)(=O)=O)ccc1CNc1ncnc2c1cnn2C` [Example 2.3, 3-Methoxy-4-(((1-methyl-1H-pyrazolo[3,4-d]pyrimidin-4-yl)amino)methyl)-benzenesulfonamide], the results for the IC50 in test [1] and in test [2] were 0.1 to 1 µM and 1 to 20 µM, respectively.

On to `Cn1ncc2c(NCc3ccc(S(N)(=O)=O)c(Cl)c3)ncnc21` [Example 2.4, 2-Chloro-4-(((1-methyl-1H-pyrazolo[3,4-d]pyrimidin-4-yl)amino)methyl)-benzenesulfonamide], for which the figures for the IC50 in test [1] and in test [2] were 0.1 to 1 µM and 1 to 20 µM, respectively.

As to `Cn1ncc2c(N3CCC(NCCCc4ccncc4)CC3)ncnc21` [Example 2.5, 1-(1-Methyl-1H-pyrazolo[3,4-d]pyrimidin-4-yl)-N-(3-(pyridin-4-yl)propyl)piperidin-4-amine], the half-inhibitory concentration (IC50) in test [1] and in test [2] was over 20 µM each time.

Consider `CN1CCN(c2nc(N3CCC(NCCCc4ccncc4)CC3)c3cnn(C)c3n2)CC1` [Example 2.6, 1-(1-Methyl-6-(4-methylpiperazin-1-yl)-1H-pyrazolo[3,4-d]pyrimidin-4-yl)-N-(3-(pyridin-4-yl)propyl)piperidin-4-amine], for which the IC50 in test [1] and in test [2] was over 20 µM throughout.

Regarding `Cn1ncc2c(N3CCC(NCCCc4ccncc4)CC3)nc(-c3ccccc3)nc21` [Example 2.7, 1-(1-Methyl-6-phenyl-1H-pyrazolo[3,4-d]pyrimidin-4-yl)-N-(3-(pyridin-4-yl)propyl)piperidin-4-amine], the IC50 in test [1] and in test [2] was over 20 µM in each case.

`Cn1cnc2c(NCc3ccc(S(N)(=O)=O)cc3)ncnc21` [Example 2.8, 4-(((9-Methyl-9H-purin-6-yl)amino)methyl)benzenesulfonamide]: the figures for the IC50 in test [1] and in test [2] were over 20 µM and 1 to 20 µM, respectively.

For the compound `Cn1ncc2c(NCc3ccc(S(N)(=O)=O)cc3)nc(-c3ccccn3)nc21` [Example 2.10, 4-(((1-Methyl-6-(pyridin-2-yl)-1H-pyrazolo[3,4-d]pyrimidin-4-yl)amino)methyl)-benzenesulfonamide], the 50% inhibitory concentration (IC50) in test [1] is under 0.1 µM; in test [2], 1 to 20 µM.

With `Cn1ncc2c(NCc3ccc(S(N)(=O)=O)cc3)nc(N3CCCCC3)nc21` [Example 2.14, 4-(((1-Methyl-6-(piperidin-1-yl)-1H-pyrazolo[3,4-d]pyrimidin-4-yl)amino)methyl)-benzenesulfonamide], the IC50 in test [1] is 1 to 20 µM; in test [2], 0.1 to 1 µM.

As for `Cn1ncc2c(N3CCC(NCCCc4ccncc4)CC3)nc(-c3ccccn3)nc21` [Example 2.20, 1-(1-Methyl-6-(pyridin-2-yl)-1H-pyrazolo[3,4-d]pyrimidin-4-yl)-N-(3-(pyridin-4-yl)propyl)piperidin-4-amine], the half-inhibitory concentration (IC50) in test [1] and in test [2] was over 20 µM in each case.

With `Cn1ncc2c(NCc3ccc(S(N)(=O)=O)s3)nc(-c3ccccn3)nc21` [Example 2.24, 5-(((1-Methyl-6-(pyridin-2-yl)-1H-pyrazolo[3,4-d]pyrimidin-4-yl)amino)methyl)thiophene-2-sulfonamide], the IC50 in test [1] and in test [2] was 0.1 to 1 µM each time.

As for `Cn1ncc2c(NCc3ccc(S(N)(=O)=O)cc3)ncnc21` [Example 2.25, 4-(((1-Methyl-1H-pyrazolo[3,4-d]pyrimidin-4-yl)amino)methyl)benzenesulfonamide], the IC50 in test [1] was under 0.1 µM; in test [2] it was 1 to 20 µM.

In the case of `Cc1nc(NCc2ccc(S(N)(=O)=O)cc2)c2cnn(C)c2n1` [Example 2.26, 4-(((1,6-Dimethyl-1H-pyrazolo[3,4-d]pyrimidin-4-yl)amino)methyl)benzenesulfonamide], the IC50 in test [1] was under 0.1 µM; in test [2] it was 0.1 to 1 µM.

Turning to `CNc1nc(NCc2ccc(S(N)(=O)=O)cc2)c2cnn(C)c2n1` [Example 2.27, 4-(((1-Methyl-6-(methylamino)-1H-pyrazolo[3,4-d]pyrimidin-4-yl)amino)methyl)-benzenesulfonamide], the values for the IC50 in test [1] and in test [2] were under 0.1 µM and 0.1 to 1 µM, respectively.

In the case of `CN(C)c1nc(NCc2ccc(S(N)(=O)=O)cc2)c2cnn(C)c2n1` [Example 2.28, 4-(((6-(Dimethylamino)-1-methyl-1H-pyrazolo[3,4-d]pyrimidin-4-yl)amino)methyl)-benzenesulfonamide], the IC50 in test [1] was in the range of 1 to 20 µM; in test [2], 0.1 to 1 µM.

As for `Cn1ncc2c(NCc3ccc(S(N)(=O)=O)cc3)nc(N3CCOCC3)nc21` [Example 2.29, 4-(((1-Methyl-6-morpholino-1H-pyrazolo[3,4-d]pyrimidin-4-yl)amino)methyl)-benzenesulfonamide], the IC50 in test [1] is over 20 µM; in test [2] it was 0.1 to 1 µM.

As for `Cn1ncc2c(NCc3ccc(S(N)(=O)=O)cc3)nc(NC3CCCCC3)nc21` [Example 2.30, 4-(((6-(Cyclohexylamino)-1-methyl-1H-pyrazolo[3,4-d]pyrimidin-4-yl)amino)methyl)-benzenesulfonamide], the IC50 in test [1] and in test [2] was 1 to 20 µM throughout.

On to `CCN(C)c1nc(NCc2ccc(S(N)(=O)=O)cc2)c2cnn(C)c2n1` [Example 2.31, 4-(((6-(Ethyl(methyl)amino)-1-methyl-1H-pyrazolo[3,4-d]pyrimidin-4-yl)amino)methyl)-benzenesulfonamide], for which the half-inhibitory concentration (IC50) lay within 1 to 20 µM in test [1] and 0.1 to 1 µM in test [2].

Turning to `CN(Cc1ccccc1)c1nc(NCc2ccc(S(N)(=O)=O)cc2)c2cnn(C)c2n1` [Example 2.32, 4-(((6-(Benzyl(methyl)amino)-1-methyl-1H-pyrazolo[3,4-d]pyrimidin-4-yl)amino)methyl)-benzenesulfonamide], the IC50 in test [1] was over 20 µM; in test [2] it was 0.1 to 1 µM.

For the compound `CN1CCN(c2nc(NCc3ccc(S(N)(=O)=O)cc3)c3cnn(C)c3n2)CC1` [Example 2.34, 4-(((1-Methyl-6-(4-methylpiperazin-1-yl)-1H-pyrazolo[3,4-d]pyrimidin-4-yl)amino)methyl)-benzenesulfonamide], the IC50 in test [1] is over 20 µM; in test [2] it was 0.1 to 1 µM.
